In patent US6723726B1 (SmithKline Beecham Corporation, priority 1996, dated 2004):
Counter-ions that a name gives are not always drawn. Like-named read-outs stand apart in the source and are kept apart here.

Legend:
[1] = target: T1, c-erbB-2 (baculovirus expressed recombinant intracellular domain) (Homo sapiens, UniProt P04626); assay: Substrate phosphorylation assay, c-erbB-2; assay type: biochemical; details: ATP and peptide at Km, 30 min, room temperature
T1 construct: baculovirus expressed, recombinant constructs of the intracellular domains of c-erbB-2 and c-erbB-4 that are constitutively active; made in house
T1 sequence (P04626 676-1255 limits assumed): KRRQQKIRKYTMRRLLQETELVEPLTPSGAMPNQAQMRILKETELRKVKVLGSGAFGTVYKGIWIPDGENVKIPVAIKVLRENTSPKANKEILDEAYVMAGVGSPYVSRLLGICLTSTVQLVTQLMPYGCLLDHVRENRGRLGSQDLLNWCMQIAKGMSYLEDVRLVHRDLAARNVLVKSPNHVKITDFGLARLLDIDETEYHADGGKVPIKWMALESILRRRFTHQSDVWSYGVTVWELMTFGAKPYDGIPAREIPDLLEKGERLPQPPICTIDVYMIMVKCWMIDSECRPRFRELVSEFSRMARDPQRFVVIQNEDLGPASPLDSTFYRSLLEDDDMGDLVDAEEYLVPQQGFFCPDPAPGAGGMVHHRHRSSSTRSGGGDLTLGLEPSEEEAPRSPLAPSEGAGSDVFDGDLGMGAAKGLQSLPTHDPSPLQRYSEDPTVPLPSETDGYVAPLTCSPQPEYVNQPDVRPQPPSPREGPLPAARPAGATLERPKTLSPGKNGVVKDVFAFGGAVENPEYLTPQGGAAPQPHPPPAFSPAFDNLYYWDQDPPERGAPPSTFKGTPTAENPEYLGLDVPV
Experimental: (§1) The substrate phosphorylation assays use baculovirus expressed, recombinant constructs of the intracellular domains of c-erbB-2 and c-erbB-4 that are constitutively active and EGFr isolated from solubilised A431 cell membranes. The method measures the ability of the isolated enzymes to catalyse the transfer of the γ-phosphate from ATP onto tyrosine residues in a biotinylated synthetic peptide (Biotin-[…]. […] The reaction is stopped by the addition of EDTA (final concentration 0.15 mM) and a sample is transferred to a streptavidin-coated 96-well plate. The plate is washed and level of phosphotyrosine on the peptide is determined using a Europium-labelled antiphosphotyrosine antibody and quantified with a time-resolved fluorescence technique.

[2] = target: T2, c-erbB-4 (baculovirus expressed recombinant intracellular domain) (Homo sapiens, UniProt Q15303); assay: Substrate phosphorylation assay, c-erbB-4; assay type: biochemical; details: ATP and peptide at Km, 30 min, room temperature
T2 construct: baculovirus expressed, recombinant constructs of the intracellular domains of c-erbB-2 and c-erbB-4 that are constitutively active; made in house
T2 sequence (Q15303 676-1308 limits assumed): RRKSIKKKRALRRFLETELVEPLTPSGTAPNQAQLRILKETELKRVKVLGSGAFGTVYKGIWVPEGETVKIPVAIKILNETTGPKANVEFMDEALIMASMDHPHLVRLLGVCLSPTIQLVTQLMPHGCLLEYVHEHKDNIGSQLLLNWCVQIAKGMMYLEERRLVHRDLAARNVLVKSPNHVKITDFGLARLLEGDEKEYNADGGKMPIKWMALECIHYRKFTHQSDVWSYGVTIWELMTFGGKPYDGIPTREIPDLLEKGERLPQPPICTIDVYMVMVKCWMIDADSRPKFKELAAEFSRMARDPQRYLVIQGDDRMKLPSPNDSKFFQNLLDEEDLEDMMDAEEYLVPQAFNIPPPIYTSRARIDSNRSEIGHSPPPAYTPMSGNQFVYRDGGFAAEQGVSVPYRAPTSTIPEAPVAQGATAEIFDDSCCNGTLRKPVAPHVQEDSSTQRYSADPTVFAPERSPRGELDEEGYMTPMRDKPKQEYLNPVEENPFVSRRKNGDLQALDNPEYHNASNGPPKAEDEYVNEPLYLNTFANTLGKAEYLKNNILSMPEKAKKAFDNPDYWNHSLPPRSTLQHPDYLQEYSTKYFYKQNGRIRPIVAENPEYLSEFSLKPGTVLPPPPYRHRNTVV
Experimental: as §1

[3] = tested on: HB4a ras cells; assay: Cell proliferation assay, HB4a transfected with ras (general toxicity comparison); assay type: cell-based, human; details: read-out: Cell Proliferation HB4a ras IC50
Experimental: (§2) The cell proliferation assay uses an immortalised human breast epithelial cell line (HB4a) which has been transformed by over-expression of c-erbB-2. Growth of these cells in low serum is dependent upon the c-erbB-2 tyrosine kinase activity. The specificity of the effect of the test compounds on tyrosine kinase dependent growth over general toxicity is assessed by comparison to an HB4a cell line which has been transfected with ras. Cells are plated at 3000/well in 96-well plates in 0.1 ml medium and allowed to attach overnight, test compound is added in 0.1 ml medium, with a final concentration of 0.5% DMSO, and the plates incubated for 4 days at 37° C. The cells are then examined microscopically for evidence of morphological detransformation and cell mass is estimated by staining with methylene blue and measuring the absorbance at 620 nm. The results are shown in Table 1 below as the IC50 values in nM. Activity against a range of naturally occurring EGFr or c-erbB-2 over-expressing human tumour cell lines (BT474-breast, HN5-head and neck, N87-gastric and Calu3-lung) is assessed with selected compounds by the same methodology. The results are also shown in Table 1 below as the IC50 values in nM.

[4] = tested on: HB4a erbB-2 cells; assay: Cell proliferation assay, HB4a transformed by over-expression of c-erbB-2; assay type: cell-based, human; details: read-out: Cell Proliferation HB4a erbB-2 IC50
Experimental: as §2

[5] = tested on: Calu3 cells; assay: Cell proliferation assay, Calu3 lung tumour cell line; assay type: cell-based, human; details: 4 days, methylene blue staining, read-out: Cell Proliferation Calu3 IC50
Experimental: as §2

[6] = tested on: HN5 cells; assay: Cell proliferation assay, HN5 head and neck tumour cell line; assay type: cell-based; details: Homo sapiens, HN5, 96 h; 4 days, methylene blue staining; read-out: Cell Proliferation HN5 IC50
Experimental: as §2

[7] = target: T3, EGFr isolated from solubilised A431 cell membranes (Homo sapiens, UniProt P00533); assay: Substrate phosphorylation assay, EGFr; assay type: biochemical; details: ATP and peptide at Km, 30 min, room temperature
T3 construct: EGFr isolated from solubilised A431 cell membranes; endogenous in cells; host or cells: A431 cell membranes (solubilised)
T3 sequence (P00533 25-1210): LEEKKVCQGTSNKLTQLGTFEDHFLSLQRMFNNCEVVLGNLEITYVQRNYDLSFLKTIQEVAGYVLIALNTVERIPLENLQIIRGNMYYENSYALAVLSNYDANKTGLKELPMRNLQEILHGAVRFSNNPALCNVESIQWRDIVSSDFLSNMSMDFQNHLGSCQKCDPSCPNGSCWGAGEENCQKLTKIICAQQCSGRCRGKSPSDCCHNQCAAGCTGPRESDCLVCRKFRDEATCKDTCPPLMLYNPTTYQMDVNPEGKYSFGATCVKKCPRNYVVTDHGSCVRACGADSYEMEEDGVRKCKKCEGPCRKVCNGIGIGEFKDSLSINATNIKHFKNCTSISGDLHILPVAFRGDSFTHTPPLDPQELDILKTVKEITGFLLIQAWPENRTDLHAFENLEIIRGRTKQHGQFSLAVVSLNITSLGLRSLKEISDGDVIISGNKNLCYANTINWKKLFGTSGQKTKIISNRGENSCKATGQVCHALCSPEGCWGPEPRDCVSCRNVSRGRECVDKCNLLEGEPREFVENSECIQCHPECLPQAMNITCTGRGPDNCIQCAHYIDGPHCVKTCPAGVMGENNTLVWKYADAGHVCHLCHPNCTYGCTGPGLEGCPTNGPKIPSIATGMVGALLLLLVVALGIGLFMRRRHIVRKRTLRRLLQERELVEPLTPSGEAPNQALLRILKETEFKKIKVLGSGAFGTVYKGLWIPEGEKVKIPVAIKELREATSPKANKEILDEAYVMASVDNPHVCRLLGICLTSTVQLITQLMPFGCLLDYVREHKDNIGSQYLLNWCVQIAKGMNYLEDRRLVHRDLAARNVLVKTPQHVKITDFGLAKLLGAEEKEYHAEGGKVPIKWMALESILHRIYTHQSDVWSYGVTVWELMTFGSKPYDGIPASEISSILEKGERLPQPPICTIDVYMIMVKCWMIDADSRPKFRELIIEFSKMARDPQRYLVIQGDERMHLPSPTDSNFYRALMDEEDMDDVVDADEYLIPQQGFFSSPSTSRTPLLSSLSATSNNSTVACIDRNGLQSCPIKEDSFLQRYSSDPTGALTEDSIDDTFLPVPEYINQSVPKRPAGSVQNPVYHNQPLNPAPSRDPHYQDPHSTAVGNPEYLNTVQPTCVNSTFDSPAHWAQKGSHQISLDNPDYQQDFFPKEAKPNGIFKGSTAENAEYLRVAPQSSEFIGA
Experimental: as §1

[8] = tested on: BT474 cells; assay: Cell proliferation assay, BT474 breast tumour cell line; assay type: cell-based, human; details: 4 days, methylene blue staining, read-out: Cell Proliferation BT474 IC50
Experimental: as §2

[9] = Homo sapiens, HB4a, 96 h, 4 days, methylene blue staining
[10] = 4 days, methylene blue staining

| Structure (SMILES) | IC50 [1] [nM] | IC50 [2] [nM] | IC50 [7] [nM] | IC50 [3, 9] [nM] | IC50 [4, 9] [nM] | also measured |
| --- | --- | --- | --- | --- | --- | --- |
| Clc1cc2c(Nc3ccc4c(cnn4Cc4ccccc4)c3)ncnc2cn1 [Example 1, (1-Benzyl-1H-indazol-5-yl)-(6-chloro-pyrido[3,4-d]pyrimidin-4-yl)-amine Hydrochloride] | 27 | 48 |  |  |  |  |
| CN(CCO)c1cc2c(Nc3ccc4c(cnn4Cc4ccccc4)c3)ncnc2cn1 [Example 3] | 7 | 23 |  | 33000 | 140 | IC50 ([5]; Homo sapiens, Calu-3, 96 h): 1800 nM |
| c1ccc(Cn2ncc3cc(Nc4ncnc5cnccc45)ccc32)cc1 [Example 4, (1-Benzyl-1H-indazol-5-yl)-(pyrido[3,4-d]pyrimidin-4-yl)-amine] | 120 | 1300 |  | 13000 | 3900 |  |
| CN(C)c1cc2c(Nc3ccc4c(ccn4Cc4ccccc4)c3)ncnc2cn1 [Example 6, N4-(1-Benzyl-1H-indol-5-yl)-N6,N6-dimethyl-pyrido[3,4-d]pyrimidine-4,6-diamine] | 11 | 150 |  |  |  | IC50 [6]: 320 nM |
| CN(C)c1cc2c(Nc3ccc4c(cnn4Cc4ccccn4)c3)ncnc2cn1 [Example 12, N6,N6-Dimethyl-N4-(1-pyridin-2-ylmethyl-1H-indazol-5-yl)-pyrido[3,4-d]pyrimidine-4,6diamine Hydrochloride] | 1 | 3 | 77 | 32000 | 170 |  |
| CN(C)c1cc2c(Nc3ccc4c(cnn4Cc4cccnc4)c3)ncnc2cn1 [Example 13, N6,N6-Dimethyl-N4-(1-pyridin-3-ylmethyl-1H-indazol-5-yl)-pyrido[3,4-d]pyrimidine-4,6-diamine Hydrochloride] | 50 | 2400 | 370 | 28000 | 240 |  |
| Cc1nn(Cc2ccccc2)c2ccc(Nc3ncnc4cnc(N(C)C)cc34)cc12 [Example 14, N4-(1-Benzyl-3-methyl-1H-indazol-5-yl)-N6,N6-dimethyl-pyrido[3,4-d]pyrimidine-4,6-diamine] | 430 | 1500 | 830 | 7900 | 950 |  |
| CN(C)c1cc2c(Nc3ccc4c(cnn4Cc4ccccc4F)c3)ncnc2cn1 [Example 15, N4-(1-(2-Fluoro-benzyl)1H-indazol-5-yl)-N6,N6-dimethyl-pyrido[3,4-d]pyrimidine-4.6-diamine Hydrochloride] | 7 | 4 |  | 14000 | 4 |  |
| CN(C)c1cc2c(Nc3ccc4c(cnn4Cc4ccc(F)cc4)c3)ncnc2cn1 [Example 17, N4-(4-Fluoro-benzyl)-1H-indazol-5-yl)-N6,N6-dimethyl-pyrido[3,4-d]pyrimidine-4,6-diamine Hydrochloride] | 250 |  |  |  |  | IC50 [3, 10]: 7600 nM; IC50 [8]: 550 nM; IC50 [4, 10]: 490 nM; IC50 [5]: 7000 nM |
| CN(C)c1cc2c(Nc3ccc4c(ccn4S(=O)(=O)c4ccccc4)c3)ncnc2cn1 [Example 18, N4-(1-Benzenesulphonyl-1H-indol-5-yl)-N6,N6-dimethyl-pyrido[3,4-d]pyrimidine-4,6-diamine Hydrochloride] | 98 | 1700 | 290 | 19000 | 21 | IC50 [6]: 440 nM |
| CN(C)c1cc2c(Nc3ccc4c(S(=O)(=O)c5ccccc5)c[nH]c4c3)ncnc2cn1 [Example 19, Hydrochloride] | 6 | 130 | 540 |  |  | IC50 ([3]; Homo sapiens, HB4a, 96 h): 33000 nM; IC50 ([4]; Homo sapiens, HB4a, 96 h): 1200 nM |
| c1ccc(Cn2ncc3cc(Nc4ncnc5cnc(-n6ccnc6)cc45)ccc32)cc1 [Example 20, (1-Benzyl-1H-indazol-5-yl)-(6-imidazol-1-yl-pyrido[3,4-d]pyrimidin-4-yl)-amine] | 33 |  | 4 | 14000 | 470 |  |

Second part, led by results:

| IC50 [1] [nM] | IC50 [2] [nM] | IC50 [7] [nM] | Structure (SMILES) | IC50 [3, 9] [nM] | IC50 [4, 9] [nM] | also measured |
| --- | --- | --- | --- | --- | --- | --- |
|  |  | 54 | c1ccc(Cn2ncc3cc(Nc4ncnc5cnc(-n6cncn6)cc45)ccc32)cc1 [Example 21] |  |  | IC50 [3, 10]: 18000 nM; IC50 [4, 10]: 500 nM |
|  |  | 22 | c1ccc(Cn2ncc3cc(Nc4ncnc5cnc(-n6nccn6)cc45)ccc32)cc1 [Example 22] |  |  | IC50 [3, 10]: 18000 nM; IC50 [4, 10]: 1700 nM |
|  |  | 31 | c1ccc(Cn2ncc3cc(Nc4ncnc5cnc(-n6ccnn6)cc45)ccc32)cc1 [Example 23] |  |  | IC50 [3, 10]: 22000 nM; IC50 [4, 10]: 250 nM |
| 20 | 140 |  | c1ccc(Cn2ncc3cc(Nc4ncnc5cnc(N6CCCC6)cc45)ccc32)cc1 [Example 24, (1-Benzyl-1H-indazol-5-yl)-(6-pyrrolidin-1-yl-pyrido[3,4-d]pyrimidin-4-yl)-amine] | 50000 | 810 | IC50 ([8]; Homo sapiens, BT-474, 96 h): 460 nM; IC50 [6]: 900 nM |
| 29 |  | 54 | CCN(C)c1cc2c(Nc3ccc4c(cnn4Cc4ccccc4)c3)ncnc2cn1 [Example 26, N4-(1-Benzyl-1H-indazol-5-yl)-N6-ethyl-N6-methyl-pyrido[3,4-d]pyrimidine-4.6-diamine] |  |  | IC50 [3, 10]: 8900 nM; IC50 [4, 10]: 150 nM |
| 2 | 190 |  | CC(C)NC(=O)CN1CCN(c2cc3c(Nc4ccc5c(cnn5Cc5ccccc5)c4)ncnc3cn2)CC1 [Example 27, 2-(4-(4-(1-Benzyl-1H-indazol-5-ylamino)-pyrido[3,4-d]pyrimidin-6-yl)-piperazin-1-yl)-N-isopropyl-acetamide] | 21000 | 380 |  |
| 4 | 170 |  | O=C(CN1CCN(c2cc3c(Nc4ccc5c(cnn5Cc5ccccc5)c4)ncnc3cn2)CC1)N1CCOCC1 [Example 28, 2-(4-(4-(1-Benzyl-1H-indazol-5-ylamino)-pyrido[3,4-d]pyrimidin-6-yl)-piperazin-1-yl)-1-morpholin-4-yl-ethanone] | 28000 | 590 |  |
| 2 | 9600 | 2 | Cc1nnc(-c2cc3c(Nc4ccc5c(cnn5Cc5cccc(F)c5)c4)ncnc3cn2)o1 [Example 30, (1-(3-Fluoro-benzyl)-1H-indazol-5-yl)-(6-(5-methyl-1,3,4-oxadiazol-2-yl)-pyrido[3,4-d]pyrimidin-4-yl)-amine Hydrochloride] | 26000 | 2900 |  |
| 140 | 2700 | 1900 | c1ccc(COc2cc3c(Nc4ccc5c(cnn5Cc5ccccc5)c4)ncnc3cn2)cc1 [Example 33, (1-Benzyl-1H-indazolyl-5-yl)-(6-benzyloxy-pyrido[3,4-d]pyrimidin-4-yl)-amine Hydrochloride] | 50000 | > 50000 |  |
|  |  | 1600 | O=C(O)c1ccc(-c2cc3c(Nc4ccc5c(cnn5Cc5ccccc5)c4)ncnc3cn2)o1 [Example 35, 5-[4-(1-Benzyl-1H-indazol-5-ylamino)-pyrido-[3,4-d]pyrimidin-6-yl]-furan-2-carboxylic Acid Hydrochloride] | > 50000 | 27000 |  |
|  |  | 1600 | CS(=O)(=O)CCNC(=O)c1ccc(-c2cc3c(Nc4ccc5c(cnn5Cc5ccccc5)c4)ncnc3cn2)o1 [Example 36, 5-[4-(1-benzyl-1H-indazol-5-ylamino)-pyrido-[3,4-d]pyrimidin-6-yl]-furan-2-carboxylic Acid 2-methanesulphonyl-ethylamide Hydrochloride] | > 50000 | 3100 |  |
| 330 | 1900 | 930 | CN(C)c1cc2c(Nc3ccc4c(cnn4Cc4ccc(O)cc4)c3)ncnc2cn1 [Example 38, N4-[1-(4-Hydroxybenzyl)-1H-indazol-5-yl)-N6,N6-dimethyl-pyrido[3,4-d]pyrimidine-4,6-diamine] | 50000 | 6900 |  |
